In patent publication US5565425A, “Viral infection and proliferation inhibitors” (Snow Brand Milk Products Co., Ltd, priority 1993, dated 1996):
Bridge positions count the residues as written; N and C are the ends. Peptide text beside a SMILES is read from it.

Tests used:
HIV (HTLV-IIIB) = assay: Inhibitory activity against HIV infection and proliferation in MT-4 cells (indirect fluorescence antibody method); type: cell-based, human immunodeficiency virus (HIV); conditions: three days, positive control 26.0%
Description: (Method) Cultured supernatant of MOLT-4/HTLV-IIIB cells, a HTLV-IIIB persistent infected strain of HIV, was used as a viral solution. The supernatant was kept at -80° C. Human T cell line MT-4 was used for the test. MT-4 was subcultured in RPMI 1640 medium containing 10% fetal calf serum (FCS). Sample, LF derived peptide, was dissolved in RPMI 1640 medium and one ml of the diluted solution at various concentrations was added to the cells. The inoculated MT-4 test sample was incubated for 60 minutes and infected with HIV at a concentration of moi […]=0.01 and one ml of the cell solution adjusted at a cell density of 3×10^5 cells/ml was added. The cells were cultured for three days : and HIV infected cells were determined with an indirect fluorescence antibody method.
HIV infected cells were determined by the indirect fluorescence antibody method using HIV infected patient serum as a primary antibody. […] HIV infected MT-4 cells cultured without addition of the sample was used as a positive control and cells without addition of viral solution was cultured to make a negative control group.

[1] = test system: influenza virus A/PR/8/34; conditions: 100 μl of one mg/ml solution in allantoic cavity three hours before virus; average of five eggs
[2] = test system: Human CMV (Tanaka strain); assay: Inhibitory activity against human CMV infection and proliferation in HELF cells (fluorescence staining); type: cell-based, Human cytomegalo virus
Description: (Method) LF derived peptide was dissolved in 2% serum added MEM medium to give five mg/ml solution, filtered and sterilized to make a stock solution. The stock solution was diluted with 2% serum added MEM medium on use. Samples containing human embryo lung fibroblast cells (HELF cells) were suspended in 2% serum added MEM medium and incubated for 10 minutes. The cells were collected by centrifugation, washed twice with 2% serum added MEM medium and suspended in 2% serum added MEM medium. Human cytomegalo virus [Human CMV (Tanaka strain)] was added, incubated for 24 hrs., fluorescence stained with human CMV positive serum and the adsorption rate of human CMV to the cells was determined.
The results are judged from the numbers of fluorescent stained cells per one cover slip.

[3] = test system: mouse cytomegalo virus (mouse CMV); assay: In vivo inhibitory activity against mouse CMV infection (survival of mice); conditions: after 10 days
Description: (§1) (Method) Male Balbc/AJcl mice, 4-week-old (10 in one group) were used. The sample was dissolved in phosphate buffer saline solution (PBS) and intraperitoneally administered to mice.

[4] = test system: mouse cytomegalo virus (mouse CMV); assay: Infection protective test against mouse CMV by the time of administration; type: in vivo; conditions: mice, 0.10 g/kg i.p., after 10 days
Description: as §1, with “mice. […] Timing of administrations of the sample was made 48, 24, six and one hr. before, immediately after, one and six hrs. after the administration.” for “mice.”

Compound: CC[C@H](C)[C@H](NC(=O)[C@@H]1CSSC[C@H](NC(=O)[C@H](CCCCN)NC(=O)[C@@H](N)[C@@H](C)O)C(=O)N[C@@H](Cc2ccccc2)C(=O)N[C@@H](CCC(N)=O)C(=O)N[C@@H](Cc2c[nH]c3ccccc23)C(=O)N[C@@H](CCC(N)=O)C(=O)N[C@@H](CCCNC(=N)N)C(=O)N[C@@H](CC(N)=O)C(=O)N[C@@H](CCSC)C(=O)N[C@@H](CCCNC(=N)N)C(=O)N[C@@H](CCCCN)C(=O)N[C@@H](C(C)C)C(=O)N[C@@H](CCCNC(=N)N)C(=O)NCC(=O)N2CCC[C@H]2C(=O)N2CCC[C@H]2C(=O)N[C@@H](C(C)C)C(=O)N[C@@H](CO)C(=O)N1)C(=O)N[C@@H](CCCCN)C(=O)N[C@@H](CCCNC(=N)N)C(=O)N[C@@H](CC(=O)O)C(=O)N[C@@H](CO)C(=O)O [Human LF (18-42)] (H-TKCFQWQRNMRKVRGPPVSCIKRDS-OH; disulfide 3-20)
- ratio of stained (HIV infected) cells (HIV (HTLV-IIIB); sample 63 μg/ml): 17%
- ratio of stained (HIV infected) cells (HIV (HTLV-IIIB); sample 125 μg/ml): 8.8%
- ratio of stained (HIV infected) cells (HIV (HTLV-IIIB); sample 250 μg/ml): 6.7%
- ratio of stained (HIV infected) cells (HIV (HTLV-IIIB); sample 500 μg/ml): 2.9%
- ratio of stained (HIV infected) cells (HIV (HTLV-IIIB); sample 1,000 μg/ml): 1.1%
- Inhibitory rate of infection and proliferation of influenza virus [1]: 96.9%
- Inhibitory rate of human CMV infection ([2]; 24 hrs., concentration not given): 95.7%
- Inhibitory rate (human CMV infection and proliferation) ([2]; concentration 0.04 mg/ml): 14.7%
- Inhibitory rate (human CMV infection and proliferation) ([2]; concentration 0.1 mg/ml): 34.9%
- Inhibitory rate (human CMV infection and proliferation) ([2]; concentration 0.2 mg/ml): 45.0%
- Inhibitory rate (human CMV infection and proliferation) ([2]; concentration 0.4 mg/ml): 51.9%
- Inhibitory rate (human CMV infection and proliferation) ([2]; concentration 1.0 mg/ml): 86.0%
- Inhibitory rate (human CMV infection and proliferation) ([2]; concentration 2.0 mg/ml): 96.1%
- Survival rate ([3]; 0.02 g/kg of body weight i.p. 24 hrs. before mouse CMV): 20%
- Survival rate ([3]; 0.05 g/kg of body weight i.p. 24 hrs. before mouse CMV): 50%
- Survival rate ([3]; 0.10 g/kg of body weight i.p. 24 hrs. before mouse CMV): 100%
- Survival rate ([3]; 0.50 g/kg of body weight i.p. 24 hrs. before mouse CMV): 100%
- Survival rate ([4]; time of administration 0 hrs.): 100%
- Survival rate ([4]; time of administration +1 hrs.): 100%
- Survival rate ([4]; time of administration +6 hrs.): 60%
- Survival rate ([4]; time of administration -1 hrs.): 100%
- Survival rate ([4]; time of administration -6 hrs.): 100%
- Survival rate ([4]; time of administration -24 hrs.): 100%
- Survival rate ([4]; time of administration -48 hrs.): 60%
